The values below are quoted from earlier work in patent publication US9314447B2 (Lupin Atlantis Holdings, S.A., priority 2012, dated 2016).

Molecules are shown by their SMILES.

For the data set the following is noted: in vivo.

`CC(C)(Oc1ccc(C(=O)c2ccc(Cl)cc2)cc1)C(=O)O` [Fenofibric acid]: the elimination half-life entry is “about 20 hours”.
